What was measured:
Rattus norvegicus = organism: Rattus norvegicus; test: Antimuscarinic potency is measured as its ability to block ACh-induced contractions of the rat ileum.; type: functional; conditions: read-out: pA2 (converted)
[1] = target: Muscarinic acetylcholine receptor; test: Compound was evaluated for the inhibition of binding of [3H]QNB (quinuclidinyl benzilate) to striatal Muscarinic acetylcholine receptor; type: protein assay

IC50 [1] [nM]	Compound	Kb (Rattus norvegicus) [nM]
–	CCN(CC)CC[C@@H]1COC(c2ccccc2)(c2ccccc2)[C@@H]1O	646
19000	CCN(CC)C[C@H]1C[C@@H]2COC(c3ccccc3)(c3ccccc3)[C@@H]2O1.Cl	–
2000	CCN(CC)CCC1COC(c2ccccc2)(c2ccccc2)C1=O.Cl (stereo not given)	447
–	CCN(CC)CC[C@H]1COC(c2ccccc2)(c2ccccc2)[C@@H]1O	20000

From ChEMBL document CHEMBL1123919, “Molecular modification of anticholinergics as probes for muscarinic receptors. 3. Conformationally restricted analogues of benactyzine” (J Med Chem, 1987)
